The subject of one data set is human hepatocytes. Kind of data set: Assay A: Metabolic Stability in Human Hepatocytes. The data set is classed as in vitro ADME. Conditions: cryopreserved human hepatocytes, 10^6 viable cells/mL, 1 μM compound, 37° C. In a few lines:
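Cryopreserved hepatocytes (10^6 viable cells/mL) at 37° C with 1 μM test compound, sampled 0.5–120 min and quenched in MeCN. Parent measured by LC-MS/MS; CLint (μL/min/10^6 cells) from the slope of ln(parent concentration) vs time.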

The target in data set [1] is recombinant 17bHSD13 (N2-K300) (Homo sapiens (Human), UniProt Q7Z5P4). Put plainly: In Vitro 17bHSD13 Enzyme Assay. Conditions: 80 nM 17bHSD13, 0.5 mM NAD, 20 μM Estradiol, 2.5 h; estradiol to estrone by LC-MS/MS. The data set is classed as biochemical. In a few lines: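 Human 17bHSD13 (N2-K300, 80 nM) with 0.5 mM NAD, 20 μM estradiol and varied compound in 50 mM Tris-Cl pH 7.4, 5 mM EDTA, 0.01% DDM. Estrone/(estrone+estradiol) ratio read by LC-MS/MS (APCI, positive MRM). Inhibition normalised to DMSO and a known-inhibitor control; IC50 from curve fit.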
Chain of recombinant 17bHSD13 (N2-K300) (Q7Z5P4 2-300): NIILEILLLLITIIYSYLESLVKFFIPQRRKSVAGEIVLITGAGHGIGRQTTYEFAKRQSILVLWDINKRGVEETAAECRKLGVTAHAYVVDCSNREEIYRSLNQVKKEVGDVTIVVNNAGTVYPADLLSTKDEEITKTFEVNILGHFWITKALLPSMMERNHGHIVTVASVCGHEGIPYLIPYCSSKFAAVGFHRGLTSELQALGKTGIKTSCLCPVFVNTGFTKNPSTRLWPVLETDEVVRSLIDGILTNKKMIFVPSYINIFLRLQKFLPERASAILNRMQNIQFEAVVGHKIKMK

The target of data set [2] is recombinant 17bHSD4 (M1-N311) (Homo sapiens (Human), UniProt P51659). Kind of data set: In Vitro 17bHSD4 Enzyme Assay. It is filed as biochemical. The note with it: 40 nM 17bHSD4, 0.125 mM NAD, 15 μM Estradiol, 1.5 h; NADH fluorescence; read-out: 17HSD17b4 Enzyme assay IC50.
Chain of recombinant 17bHSD4 (M1-N311) (P51659 1-311): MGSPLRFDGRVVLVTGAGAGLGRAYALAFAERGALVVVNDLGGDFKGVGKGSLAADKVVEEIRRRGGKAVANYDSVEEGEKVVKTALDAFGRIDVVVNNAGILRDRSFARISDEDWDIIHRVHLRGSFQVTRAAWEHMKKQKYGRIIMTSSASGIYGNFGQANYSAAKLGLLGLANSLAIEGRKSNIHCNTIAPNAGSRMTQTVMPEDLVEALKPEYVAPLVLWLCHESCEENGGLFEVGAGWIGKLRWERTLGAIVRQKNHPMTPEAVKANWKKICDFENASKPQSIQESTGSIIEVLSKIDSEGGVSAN

For orientation: IC50 means the point on the concentration scale where inhibition reaches its midpoint. Turning to `CC(C)[C@H]1CN(C(=O)c2noc(-c3cc(F)c(F)c(O)c3F)n2)C[C@@H](C)O1` (racemic) [Example 122, rac-((2R,6S)-2-isopropyl-6-methylmorpholino)(5-(2,4,5-trifluoro-3-hydroxyphenyl)-1,2,4-oxadiazol-3-yl)methanone], in the data set on human hepatocytes, the “Assay A: Human Heps Met Clint GMean CLint (μl/min/1E6)” value was 8.8 μl/min/1E6. For the same compound, the IC50 in data set [1] was 85 nM; in data set [2], > 50000 nM.

In the case of `O=C(c1noc(-c2cc(F)c(F)c(O)c2F)n1)N1CC2CCC(C1)C2(F)F` [Example 43, (8,8-difluoro-3-azabicyclo[3.2.1]octan-3-yl)(5-(2,4,5-trifluoro-3-hydroxyphenyl)-1,2,4-oxadiazol-3-yl)methanone], the “Assay A: Human Heps Met Clint GMean CLint (μl/min/1E6)” value in the data set with human hepatocytes is on record as 3.3 μl/min/1E6. The half-inhibitory concentration (IC50) in data set [1] was 339 nM; in data set [2], 39000 nM.

As to `C[C@@H]1C[C@H](C)CN(C(=O)c2noc(-c3cc(F)c(F)c(O)c3F)n2)C1` [Example 37, ((3R,5S)-3,5-Dimethylpiperidin-1-yl)(5-(2,4,5-trifluoro-3-hydroxyphenyl)-1,2,4-oxadiazol-3-yl)methanone], in the data set with human hepatocytes, the “Assay A: Human Heps Met Clint GMean CLint (μl/min/1E6)” value amounted to 6.7 μl/min/1E6. Also, the results for the IC50 in data set [1] and in data set [2] were 57 nM and 30500 nM, respectively.

Regarding `C[C@@H]1CN(C(=O)c2noc(-c3c(F)c(O)c(F)c(F)c3I)n2)C[C@H](C)O1` [Example 108, ((2S,6R)-2,6-Dimethylmorpholino)(5-(2,4,5-trifluoro-3-hydroxy-6-iodophenyl)-1,2,4-oxadiazol-3-yl)methanone], the “Assay A: Human Heps Met Clint GMean CLint (μl/min/1E6)” value in the data set with human hepatocytes is reported as 8.8 μl/min/1E6. The IC50 in data set [1] is 80 nM; in data set [2], > 50000 nM.

Turning to `C[C@@H]1CN(C(=O)c2noc(-c3cc(F)c(F)c(O)c3F)n2)C[C@H](C)N1` [Example 119, ((3R,5S)-3,5-Dimethylpiperazin-1-yl)(5-(2,4,5-trifluoro-3-hydroxyphenyl)-1,2,4-oxadiazol-3-yl)methanone], the “Assay A: Human Heps Met Clint GMean CLint (μl/min/1E6)” value with human hepatocytes stood at 1.0 μl/min/1E6. Moreover, the IC50 in data set [1] is 1740 nM; in data set [2] it was > 50000 nM.

For the compound `O=C(Nc1ccnn1C1CCCCC1)c1cc(-c2ccc(F)c(O)c2)on1` [Example 99, N-(1-Cyclohexyl-1H-pyrazol-5-yl)-5-(4-fluoro-3-hydroxyphenyl)isoxazole-3-carboxamide], the “Assay A: Human Heps Met Clint GMean CLint (μl/min/1E6)” value with human hepatocytes was >300 μl/min/1E6. Also, the IC50 in data set [1] was 114 nM; in data set [2], 41800 nM.

For `N#Cc1cccc2c1CCN(C(=O)c1noc(-c3c(F)c(O)c(F)c(F)c3I)n1)C2` [Example 109, 2-(5-(2,4,5-Trifluoro-3-hydroxy-6-iodophenyl)-1,2,4-oxadiazole-3-carbonyl)-1,2,3,4-tetrahydroisoquinoline-5-carbonitrile], the “Assay A: Human Heps Met Clint GMean CLint (μl/min/1E6)” value in the data set with human hepatocytes amounted to 13.0 μl/min/1E6. Besides, the results for the IC50 in data set [1] and in data set [2] were 46 nM and 11700 nM, respectively.

In the case of `O=C(c1noc(-c2cc(F)c(F)c(O)c2F)n1)N1CC[C@H](c2ccc(Cl)cc2)C1` [Example 95, (R)-(3-(4-Chlorophenyl)pyrrolidin-1-yl)(5-(2,4,5-trifluoro-3-hydroxyphenyl)-1,2,4-oxadiazol-3-yl)methanone], the “Assay A: Human Heps Met Clint GMean CLint (μl/min/1E6)” value in the data set with human hepatocytes came to 12.9 μl/min/1E6. The IC50 amounted to 53 nM in data set [1] and 6900 nM in data set [2].

`O=C(c1noc(-c2cc(F)c(F)c(O)c2F)n1)N1CCOC2CCCC21` (stereo not shown) [Example 41, (Hexahydrocyclopenta[b][1,4]oxazin-4(4aH)-yl)(5-(2,4,5-trifluoro-3-hydroxyphenyl)-1,2,4-oxadiazol-3-yl)methanone]: in the data set with human hepatocytes, the “Assay A: Human Heps Met Clint GMean CLint (μl/min/1E6)” value came to 5.9 μl/min/1E6. Moreover, the IC50 in data set [1] was 82 nM; in data set [2], > 50000 nM.

Turning to `C[C@@H]1CN(C(=O)c2cc(-c3cc(F)c(F)c(O)c3F)on2)C[C@H](C)O1` [Example 89, ((2R,6S)-2,6-Dimethylmorpholino)(5-(2,4,5-trifluoro-3-hydroxyphenyl)isoxazol-3-yl)methanone], the “Assay A: Human Heps Met Clint GMean CLint (μl/min/1E6)” value in the data set with human hepatocytes was 14.6 μl/min/1E6. Besides, the IC50 in data set [1] is 168 nM; in data set [2] it was > 50000 nM.

For the compound `O=C(c1noc(-c2cc(F)c(F)c(O)c2F)n1)N1CC[C@@H](Oc2ccccc2)C1` [Example 98, (R)-(3-Phenoxypyrrolidin-1-yl)(5-(2,4,5-trifluoro-3-hydroxyphenyl)-1,2,4-oxadiazol-3-yl)methanone], in the data set with human hepatocytes, the “Assay A: Human Heps Met Clint GMean CLint (μl/min/1E6)” value turned out to be 26.7 μl/min/1E6. For the same compound, the IC50 in data set [1] is 63 nM; in data set [2], 9500 nM.

Turning to `O=C(c1noc(-c2cc(F)c(F)c(O)c2F)n1)N1CCOC2(CC2)C1` [Example 118, (4-Oxa-7-azaspiro[2.5]octan-7-yl)(5-(2,4,5-trifluoro-3-hydroxyphenyl)-1,2,4-oxadiazol-3-yl)methanone], in the data set on human hepatocytes, the “Assay A: Human Heps Met Clint GMean CLint (μl/min/1E6)” value was determined as 4.6 μl/min/1E6. The IC50 in data set [1] was 1080 nM; in data set [2] it was > 50000 nM.

`Cn1nnc(-c2cnc(N3CCN(C(=O)c4noc(-c5cc(F)c(F)c(O)c5F)n4)CC3)c(Cl)c2)n1` [Example 67, (4-(3-Chloro-5-(2-methyl-2H-tetrazol-5-yl)pyridin-2-yl)piperazin-1-yl)(5-(2,4,5-trifluoro-3-hydroxyphenyl)-1,2,4-oxadiazol-3-yl)methanone]: the “Assay A: Human Heps Met Clint GMean CLint (μl/min/1E6)” value with human hepatocytes came to 6.6 μl/min/1E6. The values for the IC50 in data set [1] and in data set [2] were 79 nM and 4000 nM, respectively.

In the case of `N#Cc1cccc2c1CCN(C(=O)c1noc(-c3cc(F)c(F)c(O)c3F)n1)C2` [Example 66, 2-(5-(2,4,5-Trifluoro-3-hydroxyphenyl)-1,2,4-oxadiazole-3-carbonyl)-1,2,3,4-tetrahydroisoquinoline-5-carbonitrile], the “Assay A: Human Heps Met Clint GMean CLint (μl/min/1E6)” value in the data set on human hepatocytes is given as 12.1 μl/min/1E6. The IC50 in data set [1] was 187 nM; in data set [2] it was 19300 nM.

In the case of `N#Cc1cccc2c1CCN(C(=O)c1noc(-c3c(F)c(O)c(F)c(F)c3Br)n1)C2` [Example 30, 2-(5-(2-Bromo-3,4,6-trifluoro-5-hydroxyphenyl)-1,2,4-oxadiazole-3-carbonyl)-1,2,3,4-tetrahydroisoquinoline-5-carbonitrile], the “Assay A: Human Heps Met Clint GMean CLint (μl/min/1E6)” value in the data set with human hepatocytes was 15.6 μl/min/1E6. Moreover, the IC50 in data set [1] was determined as 61 nM; in data set [2] it was 17200 nM.

For `O=C(c1noc(-c2cc(F)c(F)c(O)c2F)n1)N1CCN(CCOc2ccc(Br)cn2)CC1` [Example 69, (4-(2-((5-Bromopyridin-2-yl)oxy)ethyl)piperazin-1-yl)(5-(2,4,5-trifluoro-3-hydroxyphenyl)-1,2,4-oxadiazol-3-yl)methanone], the “Assay A: Human Heps Met Clint GMean CLint (μl/min/1E6)” value with human hepatocytes is 13.1 μl/min/1E6. The concentration for half-maximal inhibition (IC50) in data set [1] was 131 nM; in data set [2], 48700 nM.

In the case of `N#Cc1ccc2c(c1)CCN(C(=O)c1noc(-c3cc(F)c(F)c(O)c3F)n1)C2` [Example 31, 2-(5-(2,4,5-Trifluoro-3-hydroxyphenyl)-1,2,4-oxadiazole-3-carbonyl)-1,2,3,4-tetrahydroisoquinoline-6-carbonitrile], the “Assay A: Human Heps Met Clint GMean CLint (μl/min/1E6)” value in the data set on human hepatocytes is 12.6 μl/min/1E6. The IC50 in data set [1] is 165 nM; in data set [2] it was 11500 nM.

Turning to `N#Cc1c(C(=O)N2CCN(CCCOc3ccc(F)cc3)CC2)noc1-c1cc(F)c(F)c(O)c1F` [Example 14, 3-(4-(3-(4-Fluorophenoxy)propyl)piperazine-1-carbonyl)-5-(2,4,5-trifluoro-3-hydroxyphenyl)isoxazole-4-carbonitrile], in the data set on human hepatocytes, the “Assay A: Human Heps Met Clint GMean CLint (μl/min/1E6)” value is 14.3 μl/min/1E6. The figures for the IC50 in data set [1] and in data set [2] were 126 nM and 41400 nM, respectively.

With `N#Cc1ccc2c(c1)CN(C(=O)c1noc(-c3cc(F)c(F)c(O)c3F)n1)CC2` [Example 86, 2-(5-(2,4,5-Trifluoro-3-hydroxyphenyl)-1,2,4-oxadiazole-3-carbonyl)-1,2,3,4-tetrahydroisoquinoline-7-carbonitrile], in the data set with human hepatocytes, the “Assay A: Human Heps Met Clint GMean CLint (μl/min/1E6)” value is 12.3 μl/min/1E6. For the same compound, the IC50 came to 102 nM in data set [1] and 8500 nM in data set [2].

Take `COc1ccccc1C1CCN(C(=O)c2noc(-c3cc(F)c(F)c(O)c3F)n2)C1` (stereo not shown) [Example 4, (3-(2-Methoxyphenyl)pyrrolidin-1-yl)(5-(2,4,5-trifluoro-3-hydroxyphenyl)-1,2,4-oxadiazol-3-yl)methanone]: the “Assay A: Human Heps Met Clint GMean CLint (μl/min/1E6)” value with human hepatocytes is listed as 47.4 μl/min/1E6. Moreover, the IC50 in data set [1] amounted to 36 nM; in data set [2] it was 6100 nM.

Turning to `O=C(c1noc(-c2ccc(F)c(O)c2)n1)N1CC[C@H](c2ccccc2)C1` [Example 11, (R)-(5-(4-Fluoro-3-hydroxyphenyl)-1,2,4-oxadiazol-3-yl)(3-phenylpyrrolidin-1-yl)methanone], in the data set with human hepatocytes, the “Assay A: Human Heps Met Clint GMean CLint (μl/min/1E6)” value is listed as >300 μl/min/1E6. The IC50 in data set [1] was 69 nM; in data set [2] it was > 50000 nM.

For the compound `C[C@@H]1CN(C(=O)c2ccc(-c3cc(F)c(F)c(O)c3F)s2)C[C@H](C)O1` [Example 3, ((2R,6S)-2,6-Dimethylmorpholino)(5-(2,4,5-trifluoro-3-hydroxyphenyl)thiophen-2-yl)methanone], the figures for the IC50 in data set [1] and in data set [2] were 36 nM and 31500 nM, respectively.

With `C[C@@H]1C[C@H](C)CN(C(=O)c2nc(-c3cc(F)c(F)c(O)c3F)no2)C1` [Example 111, ((3R,5S)-3,5-Dimethylpiperidin-1-yl)(3-(2,4,5-trifluoro-3-hydroxyphenyl)-1,2,4-oxadiazol-5-yl)methanone], the IC50 in data set [1] is 93 nM; in data set [2] it was > 50000 nM.

Values taken from patent US20250011311A1, “AMIDO HETEROAROMATIC COMPOUNDS” (AstraZeneca AB, priority 2022, published 2025).
